One data set concerns the target p97 (Homo sapiens, UniProt P55072). As to the kind of experiment: p97 ADP Glo ATPase biochemical assay. The conditions noted are these: 20 nM p97, 20 uM ATP, 37 deg C, 15 min; read-out: 97 ADP Glo Assay: IC50. As for the experimental part: The ATPase assay is performed according the following protocol: Purified enzyme (20 nM p97), substrate (20 μM ATP) and a dose titration of compounds are mixed in buffer (50 mM TRIS pH 7.5, 20 mM MgCl2, 0.02% TX-100, 1 mM DTT, 0.2% (v/v) glycerol) and incubated at 37° C. for 15 minutes. The reaction is terminated and the level of product generated is measured using the ADP Glo Assay Kit (Promega, Madison Wis.). Plotting product generated versus compound concentration and using a four-parameter fit model generates an IC50 value for each compounds.
The p97 assay is an initial screening assay used to determine inhibitory activity of the compounds of the invention against the p97 complex. As discussed above, inhibition of activity of the p97 proteosome complex can enable apoptosis and cause elimination of neoplastic cells (cancer cells). The method follows that of Christianson in Nat. Cell Biol., (2011) 14:93.
Assay Buffer is a mixture of 50 mM TRIS pH 7.5, 20 mM MgCl2, 0.02% TX-100, 1 mM DTT and 0.2% (v/v) Glycerol. The well plate is Platetype: Corning 3674, 384 w plate. The identification kit is an ADP glo kit (Promega): stop buffer, detection reagent.
Serial dilute compound in DMSO in a 1:3.33-fold 10 point serial dilution.
in each well of 384 w plate add the following reagents:
0.5 μL compound serial diluted in DMSO (Final Conc. 10%)
2 μL ATP (Final Conc.=20 uM, diluted in assay buffer)
2.5 μL p97 (Final Conc.=20 nM, diluted in assay buffer)
Incubate at 37 deg C. for 15 min.
Add 5μ of stop buffer, incubate at RT for 40 min.
Add 10 μL of detection reagent, incubate at RT for 30 min.
Read luminescence on Envision plate reader.
Normalize luminescence data using no enzyme (full inhibition) and no compound (no inhibition) controls. Plot normalized luminescence data against log-transformed concentration values and fit to a sigmoidal curve to determine IC50 values (done in Collaborative Drug Discovery software).

Another data set concerns A549 cells. The data set is described as follows: A549 CellTitre Glo viability assay. The settings on record: Homo sapiens, 72 hr incubation. Format: cell-based. From the text:
Anti-tumor effects are monitored in cultured cancer cells after several days of compound treatment. The cell titer glo assay (Promega) measures the amount of ATP present as a proxy for cellular viability. Cellular counting is done using high-content microscopy followed by image analysis. A hanging drop 3D-culture system (3D Biomatrix) is used followed by cell titer glo to measure growth in a tumor-like environment.
The cellular assay provides information about the anti-neoplastic activity of the compounds of the invention. The compounds are tested against cultured cancer cells to determine whether or not the compounds of the invention are capable of intersecting with cancer cells to minimize or eliminate such cells. The assay involves establishing colonies of such cells and then treating them with the test compound under specified conditions and analysis regima to determine results.
(§1) Plate 25 μL of A549 cells in every well of 384-well plate using multidrop. • Two (2) black plates for IF at 2500 cells/well • Let plate sit at room temp for 10-15 minutes prior to putting in incubator to allow cells to stick in middle of plate. • One (1) white plate for viability at 500 cells/well.
Treat Cells: • Serial dilute compounds with a 10 point 2-fold serial dilution in DMSO to make 250× stock compound solution • Dilute compounds 1:125 in cell culture media to make a 2× solution Add 25 μL of dilution compounds to cell plates in well duplicates
Put cells back in incubator (6 hr incubation for black plates, 72 hr incubation for white plates).
Thaw an aliquot of frozen cell titer glo (Promega G7572) at room temperature.
Add 45 mL of NaCl/PBS solution to 5 ml of cell titer glo (10×).
Remove white plates from incubator, leave at room temp for 30 minutes.
Add 25 μL of diluted cell titer glo to each well.
Shake plate for >1 minute.
Incubate plate for >5 minutes to stabilize luminescence.
Read luminescence on plate reader

The subject of another data set is K48-Ub in A549 cells. As to the kind of experiment: A549 K48 cell intensity (K48 poly-ubiquitin immunofluorescence). Format: cell-based. The conditions noted are these: Homo sapiens, 6 hr incubation. As for the experimental part: Image-analysis is used to generate quantitative data from these assays that can be fit to a four-parameter sigmoid curve to derive IC50 values. Substrates of the ubiquitin-proteasome system, such as p53, are monitored after tumor cell lines are incubated with compounds for several hours. Accumulation of these proteins indicates an inhibition of proteasome-mediated degradation. Accumulation of lysine-48 chain linkage of poly-ubiquitin is also monitored by immunofluorescence as an indicator of ubiquitin-proteasome system inhibition. Both LC3 and SQSTM1 are mediators of autophagy. The localization and amounts of these proteins are monitored by immunofluorescence and report on the activity and inhibition of autophagy in response to p97 inhibition.
as §1
Treat Cells: • Serial dilute compounds with a 10 point 2-fold serial dilution in DMSO to make 250× stock compound solution • Dilute compounds 1:125 in cell culture media to make a 2× solution Add 25 μL of dilution compounds to cell plates in well duplicates Put cells back in incubator (6 hr incubation for black plates, 72 hr incubation for white plates).
Incubate cells in black plates with compound at 37 deg C. for 6 hrs. add 15 μL of 16% Paraformaldehyde (PFA) directly into media of each well, • incubate at room temp for 5 min, flick plate and wash in 50 µL of PBS block in 50 μL of Blocking Buffer for 30 minutes (can go up to several hours) • Blocking buffer: 1×PBS, 1% BSA, 0.3% Triton-X100, Hoechst (1:10,000) incubate in 25 μL of primary antibody in blocking buffer at 4 deg C. over night […]
Secondary Antibodies: • AlexaFluor488 Goat anti-Rabbit 1:2,000 (Life Tech A11008) • AlexaFluor555 Goat anti-Mouse 1:2,000 (Life Tech A21422) wash black plates 3× in 50 μL PBS (˜5 min each) • incubate in 25 μL of secondary antibody (1:2,000) in blocking buffer for 1-2 hrs at room temp (alexafluor488-anti-Rabbit/alexafluor555-anti-Mouse) Image plates in high content microscope with 405 nm, 488 nm and 555 nm filters Data Analysis: • Nuclear counts and cellular intensities of each markers are measured using Hoechst as a nuclear marker with an automated image analysis protocol using Matlab software (Math Works)

The next data set has as its system Caco-2 cell monolayer. The settings on record: pH 7.4, range over 12 inter-day experiments.

Sequence of p97 (P55072 whole entry): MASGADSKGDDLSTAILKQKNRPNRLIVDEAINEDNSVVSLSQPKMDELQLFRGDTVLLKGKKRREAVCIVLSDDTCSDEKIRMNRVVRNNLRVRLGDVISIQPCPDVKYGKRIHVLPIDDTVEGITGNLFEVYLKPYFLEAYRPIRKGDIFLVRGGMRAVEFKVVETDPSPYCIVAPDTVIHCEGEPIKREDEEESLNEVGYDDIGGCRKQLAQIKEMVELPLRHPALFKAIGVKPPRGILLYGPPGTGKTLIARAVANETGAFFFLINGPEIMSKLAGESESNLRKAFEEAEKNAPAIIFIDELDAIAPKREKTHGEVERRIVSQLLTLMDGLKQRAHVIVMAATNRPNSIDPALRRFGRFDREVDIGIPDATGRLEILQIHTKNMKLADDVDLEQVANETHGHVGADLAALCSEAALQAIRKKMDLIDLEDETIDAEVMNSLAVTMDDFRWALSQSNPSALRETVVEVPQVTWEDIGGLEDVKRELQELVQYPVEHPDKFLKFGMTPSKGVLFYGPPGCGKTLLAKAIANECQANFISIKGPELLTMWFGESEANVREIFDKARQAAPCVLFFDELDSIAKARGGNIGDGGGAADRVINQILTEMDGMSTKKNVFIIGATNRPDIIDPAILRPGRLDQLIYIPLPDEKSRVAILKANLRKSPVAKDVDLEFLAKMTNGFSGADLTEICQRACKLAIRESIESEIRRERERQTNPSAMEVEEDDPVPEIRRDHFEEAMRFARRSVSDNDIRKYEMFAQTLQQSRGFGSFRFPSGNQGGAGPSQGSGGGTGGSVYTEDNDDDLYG

On to `Cc1cc2c(C(N)=O)cccc2n1-c1nc2c(c(NCc3ccccc3)n1)CN1CCCC1C2` (centres unmarked) [Compound 004, 1-[4-(Benzylamino)-5,7,8,9,9a,10-hexahydropyrimido[5,4-f]indolizin-2-yl]-2-methyl-indole-4-carboxamide], for which the IC50 on p97 was found to be 19 nM; in the data set with A549 cells it was 1120 nM; with K48-Ub in A549 cells, 273 nM.

Turning to `Cc1cc2c(C(N)=O)cccc2n1-c1nc2c(c(NCc3ccccc3)n1)CN1CCCCC1C2` (centres unmarked) [Compound 003, 1-(4-(benzylamino)-7,8,9,10,10a,11-hexahydro-5H-pyrimido[4,5-b]quinolizin-2-yl)-2-methyl-1H-indole-4-carboxamide], the IC50 at p97 was found to be 25 nM; in the data set with A549 cells, 2340 nM; in the data set with K48-Ub in A549 cells, 642 nM.

For `Cc1cc2c(C(N)=O)cccc2n1-c1nc(NCc2ccccc2)c2c(n1)C1CCCN1CC2` (centres unmarked) [Compound 002, 1-(4-(benzylamino)-5,6,8,9,10,10a-hexahydropyrimido[5,4-g]indolizin-2-yl)-2-methyl-1H-indole-4-carboxamide], the IC50 on p97 is 15 nM; in the data set with A549 cells it was 2690 nM; in the data set with K48-Ub in A549 cells, 6620 nM.

On to `CC(C)NCC(O)COc1cccc2ccccc12` (centres unmarked) [Propranolol], for which, in the data set on Caco-2 cell monolayer (A to B), the “Peff in pH 7.4 Caco-2, A B, Range” value is reported as 18.50-36.80 x E−6 cm/sec. In addition, the “Peff in pH 7.4 Caco-2, B A, Range” value in the data set with Caco-2 cell monolayer (B to A) is on record as 16.30-31.40 x E−6 cm/sec.

Regarding `Cc1cc2c(C(N)=O)cccc2n1-c1nc(NCc2ccccc2)c2c(n1)C1CCCCN1CC2` (centres unmarked) [Compound 001, 1-(4-(benzylamino)-6,8,9,10,11,11a-hexahydro-5H-pyrimido[4,5-a]quinolizin-2-yl)-2-methyl-1H-indole-4-carboxamide], the half-maximal inhibitory concentration (IC50) at p97 was 16 nM; with A549 cells, 1340 nM; in the data set on K48-Ub in A549 cells it was 736 nM.

Values taken from patent US20170267679A1, “[…] FUSED PYRIMIDINE COMPOUNDS AS INHIBITORS OF p97 COMPLEX” (Cleave Biosciences, Inc., priority 2016, published 2017).
